“And” between values parts separate entries of the source, which are not always exact repeats. Equal entries are not always repeated.
Test system: GEMS receptors with CBPA11 (BclXL–LD3 and BclXLhigh variants), STAT3-driven SEAP in HEK293T cells
Experiment: GEMS SEAP reporter assay, CBPA11 (BclXLhigh, LD3-v and BclXL-v variants) with A-1155463
Format: cell-based
Parameters: key to Raw data (SEAP) / SEAP, replicate values / Raw data of Figure 5b / Raw data Figure 5e / Raw data of Independent repeat of CBPA11-v1 vs CBPA11-v1-LD3v3 / Raw data of Independent repeat of CBPA11-v3 vs CBPA11-v3-LD3v3 / Raw data of Figure 5b, CBPA11-v1-LD3v3 (SEAP reporter raw value, single replicate) / Raw data of Figure 5b, CBPA11-v1 (SEAP reporter raw value, single replicate): SEAP activity in U/L in culture supernatant
From the text: To rationally design a CBP responding to a chemical input, we used BclXL as the druglow receptor, LD3 as the designed binder and a designed BclXL variant as the drughigh receptor (referred to as BclXLhigh) to construct a CBP responsive to BclXL inhibitors (Fig. 4a). To design BclXLhigh, we used a multistate design computational protocol described elsewhere[26] […] Thus, BclXLhigh-v(1–3) were chosen as the functional drughigh receptors, resulting in three A-1155463-controlled CBPs (referred to as CBPA11-v(1–3)) (Fig. 4c–e).
HEK293T cells were seeded in a 96-well plate 24 h before transfection. The transfection mix in each well consisted of 3 ng of constitutive human CMV promoter driven mammalian STAT3 expression vector (PhCMV-STAT3-pA), 30 ng of STAT3-induced reporter expression (OStat3-PhCMVmin-SEAP-pA) and 50 ng of expression vectors for each GEMS receptor chain (PSV40-IgK-(drughigh receptor)-EpoRm-IL-6RBm-pA and PSV40-IgK-(druglow receptor-GGGGSX3-LD3)-EpoRm-IL-6RBm-pA). For the specific drughigh receptor and druglow receptor used in the different cellular assays, they are indicated as wild type or with mutations. Then, plasmid DNA was mixed with 50 μl opti-MEM (Thermo Fisher) and 600 ng of polyethyleneimine (Polysciences, catalog no. 24765-1). For drug treatment experiments, drugs were added 12 h post-transfection and incubated with cells for 24 h before the SEAP reporter detection assay.
SEAP activity (U l^−1) in cell culture supernatants was quantified by kinetic measurements at 405 nm (1 minute per measurement for 30 cycles) of absorbance increase due to phosphatase-mediated hydrolysis of para-nitrophenyl phosphate (pNPP).
Binding affinities of SPR drug competition assays were calculated using three-parameter nonlinear regression in GraphPad Prism (v.8.3.0). Representative data of cell assays are presented as individual values and mean values (bars). n = 3 refers to biological replicates. All IC50 or EC50 values of cell assays reported were calculated using four-parameter nonlinear regression ± s.d. Bandpass features of cutoff concentrations and Bandwidth90% were estimated based on the curve fitted using bell-shaped curve nonlinear regression in GraphPad Prism (v.8.3.0). […]
Supplementary Figure 4: Design, screening and validation of BclXLhigh variants. a) Screening of BclXLhigh variants in the GEMS platform. […]
Dissociation constant measurement of BclXLhigh-v(1-3) and LD3. Equilibrium curves are fitted using […]
BclXLhigh-v1 (purple), BclXLhigh-v2 (blue), […]
a) Bcl2high-based bandpass filter designs were developed and to respond to different concentrations of […]
corresponding inhibitor. c) Screening of Bcl2high-based bandpass filter variants in the GEMS platform.
The designed binder LD3 was fused to the druglow-receptor (PSV40-IgK-Bcl2-LD3-EpoRm-IL-6RBm-pA) in one EpoR chain and Bcl2high variants with the insensitive Bcl2 (iBcl2) as control in the other EpoR chain (PSV40-IgK-Bcl2high-EpoRm-IL-6RBm-pA). HEK293T cells were transfected with indicated […]
the mean of six biological replicates ± s.d., overlaid with a scatter dot plot of the original data points.
(1 picture or pasted object on this page, not shown here)
Supplementary Figure 6: Binding affinities and drug resistances of Bcl2high-v(2,4,5) assessed by […]
a) Measurement of dissociation constants for Bcl2high-v(2,4,5) and LD3 interactions. Equilibrium curves […]
Bcl2high-v(2,4,5) measured by SPR. 5 μM of Bcl2 or indicated variants were mixed with 10 μM of […]
Bcl2high-v2 (red), Bcl2high-v4
Supplementary Figure 7: Screening of LD3 variants in CBPA11-v(1-3) and raw data of CBPA11-v(1,3) with LD3-v3 variant. a-c) Screening of LD3 and LD3-v(1-3) variants in complex with BclXL for more sensitive CBPA11-v1 (a), CBPA11-v2 (b), CBPA11-v3 (c) in the GEMS platform. The LD3 variants replaced the role of LD3 (PSV40-IgK-BclXL-LD3-v(1-3)-EpoRm-IL-6RBm-pA) in one EpoR chain and BclXLhigh-v(1-3) in the other EpoR chain (PSV40-IgK-BclXLhigh-V(1-3)-EpoRm-IL-6RBm-pA). HEK293T cells were transfected with […]

[1] = CBPA11-v1-LD3v3, A-1155463 1 nM
[2] = CBPA11-v1-LD3v3, A-1155463 3.18 nM
[3] = CBPA11-v1-LD3v3, A-1155463 10 nM
[4] = CBPA11-v1-LD3v3, A-1155463 31.8 nM
[5] = CBPA11-v1-LD3v3, A-1155463 100 nM
[6] = CBPA11-v1-LD3v3, A-1155463 318 nM
[7] = CBPA11-v1-LD3v3, A-1155463 1000 nM
[8] = CBPA11-v1-LD3v3, A-1155463 3180 nM
[9] = CBPA11-v1-LD3v3, A-1155463 10000 nM

CN(C)CC#Cc1ccc(OCCCc2sc(N3CCc4cccc(C(=O)Nc5nc6ccccc6s5)c4C3)nc2C(=O)O)c(F)c1 [A-1155463]
Normalized data of Figure 5b [1]: 12.3584 and 11.9384 and 10.5903
Raw data of Figure 5b [1]: 17.44 and 15.4815 and 15.2319
Raw data of Independent repeat of CBPA11-v1 vs CBPA11-v1-LD3v3 [1]: 31.801 and 28.5095 and 29.309
Raw data of Independent repeat of CBPA11-v1 vs CBPA11-v1-LD3v3 (CBPA11-v1-LD3v3, A-1155463 3.16 nM): 34.9091 and 28.121 and 21.957
Normalized data of Figure 5b [2]: 13.5394 and 12.5226 and 10.9319
Raw data of Figure 5b [2]: 19.1065 and 16.239 and 15.7232
Normalized data of Figure 5b [3]: 25.1514 and 28.7722 and 29.2973
Raw data of Figure 5b [3]: 35.4931 and 37.3111 and 42.1378
Raw data of Independent repeat of CBPA11-v1 vs CBPA11-v1-LD3v3 [3]: 179.972 and 131.844 and 140.391
Raw data of Independent repeat of CBPA11-v1 vs CBPA11-v1-LD3v3 (CBPA11-v1-LD3v3, A-1155463 31.6 nM): 226.429 and 187.26 and 191.409
Normalized data of Figure 5b [4]: 78.9386 and 88.4215 and 71.2191
Raw data of Figure 5b [4]: 111.396 and 114.663 and 102.433
Normalized data of Figure 5b [5]: 100
Raw data of Figure 5b [5]: 141.118 and 129.678 and 143.828
Raw data of Independent repeat of CBPA11-v1 vs CBPA11-v1-LD3v3 [5]: 335.207 and 287.921 and 227.786
Raw data of Independent repeat of CBPA11-v1 vs CBPA11-v1-LD3v3 (CBPA11-v1-LD3v3, A-1155463 316 nM): 270.923 and 196.943 and 173.263
Normalized data of Figure 5b [6]: 62.5942 and 62.3431 and 56.6992
Raw data of Figure 5b [6]: 88.3315 and 80.8452 and 81.5497
Normalized data of Figure 5b [7]: 29.9151 and 30.048 and 29.0586
Raw data of Figure 5b [7]: 42.2154 and 38.9656 and 41.7945
Raw data of Independent repeat of CBPA11-v1 vs CBPA11-v1-LD3v3 [7]: 123.233 and 79.9582 and 97.1187
Raw data of Independent repeat of CBPA11-v1 vs CBPA11-v1-LD3v3 (CBPA11-v1-LD3v3, A-1155463 3160 nM): 45.1078 and 32.2032 and 26.5323
Normalized data of Figure 5b [8]: 11.3098 and 14.9107 and 12.4987
Raw data of Figure 5b [8]: 15.9601 and 19.3359 and 17.9766
Normalized data of Figure 5b [9]: 8.9981 and 9.291 and 5.288
Raw data of Figure 5b [9]: 12.6979 and 12.0483 and 7.606
Raw data of Independent repeat of CBPA11-v1 vs CBPA11-v1-LD3v3 [9]: 23.0011 and 17.3094 and 15.2043
Raw data of Independent repeat of CBPA11-v3 vs CBPA11-v3-LD3v3 (CBPA11-v3, A-1155463 0.01 nM): 26.5862 and 23.5891 and 24.9373
Normalized data Figure 5e (CBPA11-v3, A-1155463 1 nM): 14.7288 and 13.7384 and 12.9495
Normalized data of Figure 5b (CBPA11-v3, A-1155463 1 nM): 2.438 and 2.3416 and 2.8403
Raw data of Figure 5b (CBPA11-v3, A-1155463 1 nM): 13.0926 and 12.3286 and 14.9355
Raw data of Independent repeat of CBPA11-v3 vs CBPA11-v3-LD3v3 (CBPA11-v3, A-1155463 1 nM): 77.8998 and 72.2772 and 68.2722
Raw data of Independent repeat of CBPA11-v3 vs CBPA11-v3-LD3v3 (CBPA11-v3, A-1155463 3.16 nM): 101.26 and 74.5174 and 69.017
Normalized data Figure 5e (CBPA11-v3, A-1155463 3.18 nM): 19.1455 and 14.1642 and 13.0908
Normalized data Figure 5e (CBPA11-v3, A-1155463 10 nM): 52.8574 and 45.1451 and 43.5321
Normalized data of Figure 5b (CBPA11-v3, A-1155463 10 nM): 22.9212 and 24.7467 and 27.0042
Raw data of Figure 5b (CBPA11-v3, A-1155463 10 nM): 123.11 and 130.292 and 142
Raw data of Independent repeat of CBPA11-v3 vs CBPA11-v3-LD3v3 (CBPA11-v3, A-1155463 10 nM): 279.56 and 237.506 and 229.509
Raw data of Independent repeat of CBPA11-v3 vs CBPA11-v3-LD3v3 (CBPA11-v3, A-1155463 31.6 nM): 420.603 and 418.534 and 369.593
Normalized data Figure 5e (CBPA11-v3, A-1155463 31.8 nM): 79.525 and 79.5547 and 70.1024
Normalized data of Figure 5b (CBPA11-v3, A-1155463 31.8 nM): 52.5804 and 56.6221 and 62.0483
Raw data of Figure 5b (CBPA11-v3, A-1155463 31.8 nM): 282.41 and 298.117 and 326.277
Normalized data Figure 5e (CBPA11-v3, A-1155463 100 nM): 93.7695 and 93.9386 and 100
Normalized data of Figure 5b (CBPA11-v3, A-1155463 100 nM): 84.9271 and 84.8554 and 85.7543
Raw data of Figure 5b (CBPA11-v3, A-1155463 100 nM): 456.144 and 446.765 and 450.933
Normalized data Figure 5e (CBPA11-v3, A-1155463 318 nM): 100 and 99.7629
Normalized data of Figure 5b (CBPA11-v3, A-1155463 318 nM): 100
Raw data of Figure 5b (CBPA11-v3, A-1155463 318 nM): 537.1 and 526.502 and 525.843

From publication PMC11062894, “Protein-based bandpass filters for controlling cellular signaling with chemical inputs” (Nature Chemical Biology, 2023)
